Laboratory results from the NIST ThermoML archive (doi:10.1021/je060271a).

Details: 343.15 K, Liquid, Vibrating tube method

CCCCCCC(=O)OCC(COC(=O)CCCCCC)(COC(=O)CCCCCC)COC(=O)CCCCCC [pentaerythritol tetraheptanoate]
Details | mass density [kg/m3]
5115 kPa | 944.4
5119.1 kPa | 944.5
5124.1 kPa | 944.5
5128.3 kPa | 944.5
5132.4 kPa | 944.4
5136.3 kPa | 944.4
5141.1 kPa | 944.4
5145.3 kPa | 944.4
5149.6 kPa | 944.5
5153.6 kPa | 944.5
5158.6 kPa | 944.5
5162.9 kPa | 944.5
5167.1 kPa | 944.5
5172.1 kPa | 944.5
5176 kPa | 944.4
5180 kPa | 944.5
5184.4 kPa | 944.4
5189.9 kPa | 944.6
5193.9 kPa | 944.4
5198 kPa | 944.4
5202.4 kPa | 944.7
5206.5 kPa | 944.5
5211.7 kPa | 944.6
5216 kPa | 944.6
5220.2 kPa | 944.5
5225 kPa | 944.6
5229.2 kPa | 944.5
5233.5 kPa | 944.5
5237.6 kPa | 944.5
5243.2 kPa | 944.5
5247.3 kPa | 944.7
5251.8 kPa | 944.5
5256 kPa | 944.7
5260.8 kPa | 944.6
5265 kPa | 944.6
5269.7 kPa | 944.6
5273.8 kPa | 944.5
5277.8 kPa | 944.7
5281.4 kPa | 944.6
5285 kPa | 944.6
5291.6 kPa | 944.7
5300.3 kPa | 944.5
5308.9 kPa | 944.7
5319.5 kPa | 944.7
5328.6 kPa | 944.7
5337.3 kPa | 944.6
5348.2 kPa | 944.6
5357.2 kPa | 944.7
5366.4 kPa | 944.6
5375.7 kPa | 944.6
5386.4 kPa | 944.6
5395.4 kPa | 944.7
5406.3 kPa | 944.9
5415.5 kPa | 944.8
5425 kPa | 944.8
5434.7 kPa | 944.7
5444 kPa | 944.7
5453.7 kPa | 944.7
5464.8 kPa | 944.8
5473.8 kPa | 944.7
5485 kPa | 945
5494.5 kPa | 944.7
5504.2 kPa | 944.8
5513.7 kPa | 944.8
5525.5 kPa | 944.8
5535 kPa | 944.7
5544.7 kPa | 944.8
5554.7 kPa | 944.8
5568 kPa | 944.8
5576.2 kPa | 944.7
5587.6 kPa | 944.8
5597.4 kPa | 944.8
5607.3 kPa | 944.8
5619.2 kPa | 944.8
5629.1 kPa | 944.8
5639.1 kPa | 944.9
5650.9 kPa | 944.9
5660.8 kPa | 944.8
5671.1 kPa | 944.8
5681.5 kPa | 944.7
5694 kPa | 944.9
5705.1 kPa | 945
5715.3 kPa | 944.9
5725.9 kPa | 945
5737.8 kPa | 944.9
5748.4 kPa | 944.8
5758.7 kPa | 945
5771 kPa | 944.9
5781.7 kPa | 944.9
5791.9 kPa | 944.9
5802.8 kPa | 944.9
5815.5 kPa | 945.1
5826.5 kPa | 945
5837.6 kPa | 945.1
5848.7 kPa | 945
5862 kPa | 945
5872.5 kPa | 944.9
5883.3 kPa | 945
5894.5 kPa | 945.1
5907.6 kPa | 945.1
5918.9 kPa | 945
5930.1 kPa | 945.1
5941.2 kPa | 945
5954.7 kPa | 945.1
5965.7 kPa | 945.3
5977 kPa | 945
5990.6 kPa | 945.1
6002 kPa | 945
6013.3 kPa | 945.2
6026.9 kPa | 945.1
6038.5 kPa | 945.2
6050.1 kPa | 945.1
6063.9 kPa | 945.1
6075.5 kPa | 945.2
6087.4 kPa | 945.2
6099.2 kPa | 945.2
6113 kPa | 945.2
6125.1 kPa | 945.2
6137.2 kPa | 945.3
6149.3 kPa | 945.1
6163.7 kPa | 945.3
6175.6 kPa | 945.3
6187.7 kPa | 945.2
6199.8 kPa | 945.2
6214.5 kPa | 945.3
6226.9 kPa | 945.3
6239.4 kPa | 945.3
6253.9 kPa | 945.3
6266.1 kPa | 945.3
6278.6 kPa | 945.3
6293.3 kPa | 945.3
6306.2 kPa | 945.3
6319 kPa | 945.5
6332 kPa | 945.3
6347 kPa | 945.4
6359.8 kPa | 945.5
6372.6 kPa | 945.4
6385.6 kPa | 945.4
6400.6 kPa | 945.4
6413.9 kPa | 945.4
6426.9 kPa | 945.3
6442.4 kPa | 945.3
6456.1 kPa | 945.4
6469 kPa | 945.5
6482.7 kPa | 945.4
6499.1 kPa | 945.6
6512.8 kPa | 945.5
6525.9 kPa | 945.5
6541.8 kPa | 945.6
6555.1 kPa | 945.6
6568.9 kPa | 945.6
6585.3 kPa | 945.5
6598.8 kPa | 945.5
6612.5 kPa | 945.5
6629.2 kPa | 945.6
6643.2 kPa | 945.5
6657.6 kPa | 945.7
6671.9 kPa | 945.5
6687.1 kPa | 945.5
6704 kPa | 945.6
6718.4 kPa | 945.6
6732.5 kPa | 945.6
6747.4 kPa | 945.7
6764.3 kPa | 945.8
6779.2 kPa | 945.8
6793.5 kPa | 945.7
6811.1 kPa | 945.6
6825.8 kPa | 945.6
6840.7 kPa | 945.8
6855.9 kPa | 945.7
6874.2 kPa | 945.8
6887.1 kPa | 945.8
6904.9 kPa | 945.9
6920.2 kPa | 945.8
6935.6 kPa | 945.8
6953.6 kPa | 945.8
6968.8 kPa | 945.9
6984.8 kPa | 945.8
7000.2 kPa | 945.7
7019.2 kPa | 946
7034.9 kPa | 945.7
7050.8 kPa | 945.8
7069.3 kPa | 945.8
7085.7 kPa | 945.9
7101.8 kPa | 945.9
7117.8 kPa | 946
7137.2 kPa | 945.9
7153.2 kPa | 946
7169.6 kPa | 945.9
7186 kPa | 945.8
7205.5 kPa | 945.9
7221.8 kPa | 946
7241.8 kPa | 946
7258.6 kPa | 946
7275.1 kPa | 945.9
7292.1 kPa | 946.1
7312.3 kPa | 946.1
7329.7 kPa | 946.2
7347 kPa | 946.1
7364.6 kPa | 946.1
7385.1 kPa | 946.1
7402.4 kPa | 946.2
7420 kPa | 946.2
7437.8 kPa | 946.2
7458.7 kPa | 946.2
7476.1 kPa | 946.2
7494.2 kPa | 946.1
7515.3 kPa | 946.3
7533.4 kPa | 946.1
7551.9 kPa | 946.3
7570.4 kPa | 946.3
7592.1 kPa | 946.3
7610.3 kPa | 946.4
7628.9 kPa | 946.4
7650.8 kPa | 946.3
7669.1 kPa | 946.3
7688.1 kPa | 946.3
7710.2 kPa | 946.3
7729.2 kPa | 946.3
7748.3 kPa | 946.4
7767.5 kPa | 946.4
7790.8 kPa | 946.4
7810.5 kPa | 946.5
7830.3 kPa | 946.5
